The values that follow come from patent publication US20070099905A1, “Combinations of drugs for the treatment of neoplasms” (priority 2002, published 2007).

Values joined by “and” are separate entries in the source; they are usually repeats but may differ in a detail not shown here. Equal entries are not always repeated. Where two headings read alike, the source gives them in different places.

Data set [1] concerns A549 human lung tumor xenografts. Kind of data set: A549 human lung tumor xenograft model. Type of data set: in vivo, SCID mice. The following applies: for Tumor volume compared to control animals, single agent alone / Reduction in Tumor Volume (% decrease relative to control), positive control: 2 week treatment; for Tumor volume compared to control animals, single agent alone: female SCID mice; for Reduction in Tumor Volume (% decrease relative to control), positive control: 20 mg/Kg (M, W, F). How it is done:
(§1) All experiments were carried out using male or female 6-8 week old SCID Hsd:ICR(CD-1) mice (Harlan, Indianapolis, Ind.). A-549 cells were harvested, resuspended in DMEM minus serum, and injected subcutaneously into the right flanks (4×10^6 cells/flank in a 300 μL volume). HCT 116 cells were harvested, resuspended in McCoy's 5A minus serum, and injected subcutaneously into the right and left flanks (5×10^6 cells/flank in a 300 μL volume). Tumor volumes were determined by measuring the length (1) and the width (w) and calculating the volume (V=1 w^2/2). Depending on the study, the tumors were between about 150 mm^3-about 800 mm^3 at the time of animal randomization into treatment groups (n=8-10 mice per group).
(§2) Control animals received 200 μL injections of vehicle only.
(§3) Evaluation of the results included statistical analysis of differences in tumor size between test and control groups at the end of each treatment period. Group means were compared using a one-way ANOVA. If the ANOVA was significant, i.e., p≦0.05, a Dunnett's multiple comparison test was used to determine which groups were different. Only animals surviving to the completion of the treatment period were included in the analysis.
A549 cells were injected subcutaneously into female SCID mice and the tumor volumes were allowed to reach about 400 mm^3 prior to animal randomization. Animals were administered one of the above combinations or saline vehicle control intraperitoneally five times per week (each day, Monday through Friday) for two weeks.
A549 cells were injected subcutaneously into male SCID mice and the tumor volumes were allowed to reach about 400 mm^3 prior to animal randomization. Animals were administered drug combination or vehicle control intraperitoneally five times per week (each day, Monday through Friday) for three weeks. Treatment was stopped for a one week recovery period, then continued as before for an additional two weeks.
On the technique in general: Xenograft models place foreign cells or tissue in a host animal.

For data set [2] the following is noted: mice, single intraperitoneal injection 10 mg/kg; cited from earlier work.
The target in data set [3] is T1, protein tyrosine phosphatase 1B (PTP1B) (Homo sapiens, UniProt P18031).
T1 sequence (P18031 1-435): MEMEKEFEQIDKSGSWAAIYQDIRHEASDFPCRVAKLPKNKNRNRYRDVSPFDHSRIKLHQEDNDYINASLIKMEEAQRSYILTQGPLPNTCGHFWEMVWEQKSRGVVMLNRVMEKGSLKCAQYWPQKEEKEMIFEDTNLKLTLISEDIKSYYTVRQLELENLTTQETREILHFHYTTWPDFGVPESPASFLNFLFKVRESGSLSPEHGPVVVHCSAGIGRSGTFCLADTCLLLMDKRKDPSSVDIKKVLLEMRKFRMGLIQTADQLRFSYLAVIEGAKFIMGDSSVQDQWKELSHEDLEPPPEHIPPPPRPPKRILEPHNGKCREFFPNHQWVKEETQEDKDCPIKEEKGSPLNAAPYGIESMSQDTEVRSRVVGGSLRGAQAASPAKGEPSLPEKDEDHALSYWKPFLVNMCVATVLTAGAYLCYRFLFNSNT
The following applies: cited from earlier work.

In data set [4] the test system is phosphatases of regenerating liver (PRL). The following applies: cited from earlier work.
The next data set relates to endo-exonuclease. The following applies: PCT Publication No. WO 01/35935; cited from earlier work.
For data set [5] the following is noted: mouse, in vivo. How it is done:
Unless otherwise stated, drugs were administered daily Monday to Friday. Paclitaxel was administered 3 days per week, Monday, Wednesday, and Friday only. All drugs were administered by intraperitoneal injection in a volume of 100 μL/25 grams. Animals undergoing combination therapy received two individual injections for a total of 200 μL per mouse. Control animals received 200 μL injections of vehicle only.

For data set [6] the following is noted: gastrointestinal tract; cited from earlier work.
Another data set relates to HCT 116. Kind of data set: HCT 116 human colon cancer xenograft model. Type of data set: in vivo, SCID mice. The following applies: 25 mg/Kg (M-F). How it is done: as §1, §2, §3
For data set [7] the following is noted: cited from earlier work.

In the case of `N=C(N)c1ccc(OCCCCCOc2ccc(C(=N)N)cc2)cc1` [pentamidine], the “Tumor volume compared to control animals, single agent alone” value in [1] is given as “no decrease in tumor volumes”. Moreover, the Tissue distribution result in data set [2] is on record as “concentration in the kidneys was the highest, followed by that in the liver”. The “Inhibition of PTP1B” value in data set [3] is “effective inhibitor”. In addition, the “Inhibition of PRL” value in data set [4] is on record as “potent inhibitor”. Moreover, the “Inhibition of endo-exonuclease activity” value with endo-exonuclease was “inhibit the activity”.
On to `CN(C)CCCN1c2ccccc2Sc2ccc(Cl)cc21` [chlorpromazine], for which, in [1], the “Tumor volume compared to control animals, single agent alone” value was “no decrease in tumor volumes”. The “Time to sedation after administration” value in data set [5] (SCID Hsd:ICR(CD-1), ip) was ≤ 10 min. In addition, in data set [5], the “Sedation and hypothermia at lower doses” value is “reduced period of sedation and associated hypothermia”. Also, in data set [6], the Absorption entry is reported as “readily absorbed”.
As for `O=c1[nH]cc(F)c(=O)[nH]1` [5-FU, 5-fluorouracil], in the data set on HCT 116, the “Reduction in Tumor Volume (% decrease relative to control), positive control” value came out at 47%.
With `N=C(N)c1ccc(OCCCCCOc2ccc(C(=N)N)cc2)cc1` [Pentamidine isethionate, 4,4′-diamidino-diphenoxypentane di(β-hydroxyethanesulfonate)], the Solubility entry in data set [7] (ether, acetone, and chloroform) was “insoluble”; in data set [7] (water and glycerin), “soluble”.
On to `CC(=O)O[C@H]1C(=O)[C@@]2(C)[C@H]([C@H](OC(=O)c3ccccc3)[C@]3(O)C[C@H](OC(=O)[C@H](O)[C@@H](NC(=O)c4ccccc4)c4ccccc4)C(C)=C1C3(C)C)[C@]1(OC(C)=O)CO[C@@H]1C[C@@H]2O` [Taxol, paclitaxel], for which the “Reduction in Tumor Volume (% decrease relative to control), positive control” value in data set [1] is 24% and 29%; in [1] (listed as paclitaxel), 24%. The “Tumor volume less than vehicle control” value in data set [1] (20 mg/Kg, end of first treatment period (3 weeks), male SCID mice) is 27%.
